The assay concerns the target human Nav1.8 (Homo sapiens, UniProt Q9Y5Y9). The assay is described as follows: whole-cell manual patch clamp dose-response, […] °C. Type of assay: cell-based. On the technique in general: In patch-clamp work, channel activity is measured electrically.

Chain of human Nav1.8 (Q9Y5Y9 whole entry): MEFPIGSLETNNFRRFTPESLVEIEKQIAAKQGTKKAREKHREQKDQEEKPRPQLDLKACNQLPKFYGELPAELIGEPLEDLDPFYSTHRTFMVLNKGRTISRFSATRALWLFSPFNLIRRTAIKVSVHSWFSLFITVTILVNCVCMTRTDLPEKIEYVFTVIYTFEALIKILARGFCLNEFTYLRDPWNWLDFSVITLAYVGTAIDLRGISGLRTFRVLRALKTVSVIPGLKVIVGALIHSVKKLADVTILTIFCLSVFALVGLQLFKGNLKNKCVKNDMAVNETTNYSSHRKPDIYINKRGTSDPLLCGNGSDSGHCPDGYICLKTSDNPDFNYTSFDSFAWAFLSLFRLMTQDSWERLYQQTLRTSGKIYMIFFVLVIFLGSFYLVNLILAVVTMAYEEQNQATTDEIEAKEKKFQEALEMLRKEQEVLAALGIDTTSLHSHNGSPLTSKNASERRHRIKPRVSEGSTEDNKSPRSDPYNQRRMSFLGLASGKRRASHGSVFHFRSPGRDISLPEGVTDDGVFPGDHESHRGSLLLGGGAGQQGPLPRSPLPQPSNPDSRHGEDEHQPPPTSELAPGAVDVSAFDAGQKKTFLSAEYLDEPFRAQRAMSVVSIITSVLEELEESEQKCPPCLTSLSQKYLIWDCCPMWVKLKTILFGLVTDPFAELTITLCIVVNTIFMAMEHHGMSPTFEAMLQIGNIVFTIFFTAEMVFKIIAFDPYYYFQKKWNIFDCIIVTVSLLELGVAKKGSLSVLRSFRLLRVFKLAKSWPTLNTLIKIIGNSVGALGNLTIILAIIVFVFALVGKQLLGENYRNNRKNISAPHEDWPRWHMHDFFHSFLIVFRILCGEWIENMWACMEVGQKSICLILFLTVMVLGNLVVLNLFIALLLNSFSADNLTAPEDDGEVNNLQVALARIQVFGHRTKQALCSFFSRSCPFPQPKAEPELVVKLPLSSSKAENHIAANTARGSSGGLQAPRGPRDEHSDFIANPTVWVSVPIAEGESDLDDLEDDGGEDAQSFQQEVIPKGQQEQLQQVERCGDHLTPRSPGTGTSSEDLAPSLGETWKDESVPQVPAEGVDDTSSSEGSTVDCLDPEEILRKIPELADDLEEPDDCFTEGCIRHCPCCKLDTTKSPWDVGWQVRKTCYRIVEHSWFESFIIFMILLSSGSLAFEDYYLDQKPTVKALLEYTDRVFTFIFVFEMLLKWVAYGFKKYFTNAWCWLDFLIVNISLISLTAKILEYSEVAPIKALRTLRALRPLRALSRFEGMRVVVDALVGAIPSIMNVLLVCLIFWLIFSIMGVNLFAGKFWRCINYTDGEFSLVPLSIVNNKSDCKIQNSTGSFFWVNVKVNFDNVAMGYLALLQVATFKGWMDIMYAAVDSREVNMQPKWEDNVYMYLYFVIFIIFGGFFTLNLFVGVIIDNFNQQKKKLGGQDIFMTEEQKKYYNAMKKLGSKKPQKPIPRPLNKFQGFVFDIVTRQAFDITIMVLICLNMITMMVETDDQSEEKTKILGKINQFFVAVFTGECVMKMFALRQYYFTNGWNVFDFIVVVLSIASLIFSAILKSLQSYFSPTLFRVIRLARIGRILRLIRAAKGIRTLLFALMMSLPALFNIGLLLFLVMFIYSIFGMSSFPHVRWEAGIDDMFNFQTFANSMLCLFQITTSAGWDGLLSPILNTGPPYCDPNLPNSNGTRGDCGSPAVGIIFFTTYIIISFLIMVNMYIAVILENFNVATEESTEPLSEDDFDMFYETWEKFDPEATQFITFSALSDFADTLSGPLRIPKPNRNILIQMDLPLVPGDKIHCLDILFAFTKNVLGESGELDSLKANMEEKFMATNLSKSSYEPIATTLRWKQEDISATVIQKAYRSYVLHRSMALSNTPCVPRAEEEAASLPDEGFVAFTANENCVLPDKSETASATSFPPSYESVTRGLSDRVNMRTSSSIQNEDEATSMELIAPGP
Chain of human Nav1.8 (Q9NY72 23-215 partner): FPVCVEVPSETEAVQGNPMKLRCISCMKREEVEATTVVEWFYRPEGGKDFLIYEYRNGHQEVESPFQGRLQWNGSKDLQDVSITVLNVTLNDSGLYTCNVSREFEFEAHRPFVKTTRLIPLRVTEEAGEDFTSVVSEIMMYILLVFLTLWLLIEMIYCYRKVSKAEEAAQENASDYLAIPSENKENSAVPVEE

Regarding `COc1c([C@H]2[C@H](C(=O)Nc3ccnc(C(N)=O)c3)O[C@@](C)(C(F)(F)F)[C@H]2C)ccc(F)c1F` [VX-548], binding was put at a Kd of 0.072 nM.

These data come from PMC12146708 (Proceedings of the National Academy of Sciences of the …, 2025).
